{"source": "patent US20250228775A1", "about": "“ETHANOLIC RESINIFERATOXIN CONCENTRATE” (Gruenenthal GmbH, priority 2024, published 2025)", "key": {"[1]": {"test_system": "chronic osteoarthritic knee joint pain", "assay": "Randomized, double-blind, placebo-controlled, single-dose trial of intraarticular Resiniferatoxin (Example 3)", "format": "in vivo, human", "conditions": "for subjects with severe adverse events: none considered related to investigational medicinal product or Ropivacaine", "method": "The primary objective of this study was to compare the analgesic effects of single intraarticular injections of Resiniferatoxin (100 or 400 ng) compared to placebo, at 3 and 6 months postinjection, in participants with chronic osteoarthritic knee joint pain. Secondary objectives were to evaluate the analgesic effects of Resiniferatoxin versus placebo in terms of a responder analysis (percentage of subjects achieving ≥50% or ≥70% reduction in visual analog scale pain score) and changes in Western Ontario and McMaster Universities Arthritis Index (WOMAC) total and subscale scores (pain, physical function and stiffness). Safety and injection site pain were also evaluated.\nThe study was conducted as a randomized, double-blind, placebo-controlled, single-dose trial of Resiniferatoxin. Eligible patients were aged 40 to 80 years with radiographic knee osteoarthritis (Kellgren-Lawrence Grade 2-4 in the last 3 years) and a baseline visual analog scale (0-100 mm) pain score ≥40 mm on motion in the target knee, with or without pain medication. 67 subjects were randomized to treatment with either Resiniferatoxin 100 ng (n=24) or 400 ng (n=23), or placebo (n=20), administered intraarticularly into the index knee. Intraarticular Ropivacaine (5 ml, 0.5%) was administered 15 mins before investigational medicinal product. Visual analog scale scores were used to evaluate pain on motion as the average of the last 2 days in a target knee between baseline and at 3 and 6 months post injection. Injection site pain was rated (visual analog scale) from baseline (−0.5 h) up to 3 h post intraarticular injections."}, "[2]": {"test_system": "moderate to severe pain due to osteoarthritis of the knee", "conditions": "one-time intraarticular dose 5 to 30 μg; cited from earlier work"}, "[3]": {"conditions": "single intraarticular dose 100 ng or 400 ng"}}, "data": [{"compound": "C=C(C)[C@]12C[C@@H](C)[C@@]34O[C@](Cc5ccccc5)(O[C@@H]1[C@@H]3C=C(COC(=O)Cc1ccc(O)c(OC)c1)C[C@]1(O)C(=O)C(C)=C[C@@H]41)O2", "note": "[Resiniferatoxin, 4-hydroxy-3-methoxy-benzeneacetic acid, [(2S,3aR,3bS,6aR,9aR,9bR, 10R,11aR)-3a,3b,6,6a,9a,10,11,11a-octahydro-6a-hydroxy-8,10-dimethyl-11a-(1-methylethenyl)-7-oxo-2-(phenylmethyl)-7H-2,9b-epoxyazuleno[5,4-e]-1,3-benzodioxol-5-yl]methyl ester]", "values": [{"measurement": "reduction in WOMAC total and subscale scores (pain, physical function and stiffness) compared to placebo", "setting": "[1]; 100 ng and 400 ng, at both 3 and 6 months", "value": "greater reduction in WOMAC total and subscale scores"}, {"measurement": "subjects with severe adverse events", "setting": "[1]; 100 ng group (n=24)", "value": 2, "unit": "subjects"}, {"measurement": "pain reduction (VAS pain on motion) compared to placebo", "setting": "[1]; 100 ng or 400 ng intraarticular", "value": "greater pain reduction than subjects receiving placebo"}, {"measurement": "injection site pain (procedural pain) compared to placebo", "setting": "[1]; 100 ng or 400 ng intraarticular, VAS up to 3 h post injection", "value": "generally higher"}, {"measurement": "subjects with severe adverse events", "setting": "[1]; 400 ng group (n=23)", "value": 3, "unit": "subjects"}, {"measurement": "first visit at which reduction in VAS pain on motion was observed", "setting": "[1]; intention-to-treat population, first trial visit post-injection", "value": "≤ 8", "unit": "days"}, {"measurement": "last visit until which reduction in VAS pain on motion lasted", "setting": "[1]; intention-to-treat population, last trial visit", "value": "≥ 6", "unit": "month"}, {"measurement": "time of return of injection site pain to baseline", "setting": "[1]; post-injection", "value": "≤ 3", "unit": "h"}, {"measurement": "analgesic onset", "setting": "[1]; [3]", "value": "within one week of administration"}, {"measurement": "duration of analgesia during follow-up", "setting": "[1]; [3]", "value": "at least 3 months"}, {"measurement": "safety and tolerability", "setting": "[1]; [3]", "value": "good safety profile and to have been well tolerated"}, {"measurement": "efficacy", "setting": "[2]", "value": "Preliminary efficacy was also observed"}]}]}
